From patent publication EP2112152A1, “Dihydropteridinones as Plk Inhibitors” (GPC Biotech AG, priority 2008, dated 2009)
Like-named read-outs stand apart in the source and are kept apart here.

Experiments:
[1] = molecular target: Plk1 (Homo sapiens, UniProt P53350); assay: Select Screen Kinase Assay (Invitrogen Kinase Profiling Service); assay type: biochemical; settings: tested at Invitrogen; read-out: IC50 values against Plk1 activity
Experimental: Selected compound of the present invention were tested in the Select Screen™ Kinase Profiling Service (Invitrogen Corporation, Madison, WI 53719, USA) against Plk1, under conditions of non-disclosure, non-dissemination and non-use.
In brief, compounds 1 and 13 (see Table 1) were tested at Invitrogen, and IC50 values against Plk1 activity of about 20 nM were obtained in each case.

[2] = tested on: Abl, Akt1, Aur A, c-Kit, c-Raf, Cdk1/CycB, Chk1, FGFR3, Flt3, Fyn, IGF1-R, INSR, Lyn, MAPK-ERK1, p38a, PAK4, PKCalpha, Ret, ROCK2, RSK 1, c-Src, TIE2, and …; assay: Selectivity panel (Proteros), 23 other kinases; assay type: biochemical; settings: tested at 1 mM in triplicates; each of the 23 other kinases
Experimental: Selected compound of the present invention were tested in a standard selectivity panel including Plk1 and 23 other kinases (Proteros biostructures GmbH, Martinsried/Munich, Germany), under conditions of non-disclosure, non-dissemination and non-use.
In brief, compounds 1, 13, 14, and 25 (see Table 1) were tested at 1 mM in triplicates against Plk1 as well as against Abl, Akt1, Aur A, c-Kit, c-Raf, Cdk1/CycB, Chk1, FGFR3, Flt3, Fyn, IGF1-R, INSR, Lyn, MAPK-ERK1, p38a, PAK4, PKCalpha, Ret, ROCK2, RSK 1, c-Src, TIE2, and VEGF-R2.

[3] = tested on: HT-29; assay: SRB cell proliferation assay, HT-29; assay type: cell-based; settings: Homo sapiens
Method in brief: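 Cells plated 24 h before compound, then exposed 72 h over a concentration range. TCA-fixed, sulforhodamine B-stained, bound dye read at OD520; IC50 derived from % inhibition of proliferation versus DMSO-treated cells.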

[4] = tested on: A549; assay: SRB cell proliferation assay, A549; assay type: cell-based; settings: Homo sapiens, 18-Cell Line Panel, lung
Experimental: (§1) Cells were exposed to the test compounds at various concentrations appropriate to determine an IC50 for 72 hours. Cell proliferation was measured using the SRB assay according to Shekan et al (J Natl Cancer Inst (1990) 82, 1107-112) in order to estimate the IC50 values shown in Table 3. Briefly, cells were plated in 96 well dishes 24 hours prior to compound addition at the densities specified in Table 5.1. The assay was terminated with the addition of cold TCA to a final concentration of 10% after growth medium has been removed and the plates were incubated over night at 4°C. The plates were then washed 5 times with water and 100µl of a Sulforhodamine B solution (4%) was added to each well. The plates were then incubated for 10 minutes at room temperature before removal of unbound dye by washing with 1% acetic acid. The bound dye was solubilised with 10 mM Trizma base and the absorbance read at OD520.
(§2) Table 8.1: 18-Cell Line Panel

[5] = tested on: MDA-MB-468; assay: SRB cell proliferation assay, MDA-MB-468; assay type: cell-based; settings: Homo sapiens, MDA-MB-468; 18-Cell Line Panel; breast
Experimental: as §1, §2

[6] = tested on: PC-3; assay: SRB cell proliferation assay, PC-3; assay type: cell-based; settings: Homo sapiens, 18-Cell Line Panel, prostate
Experimental: as §1, §2

[7] = tested on: A-375; assay: SRB cell proliferation assay, A-375; assay type: cell-based; settings: Homo sapiens, 18-Cell Line Panel, melanoma
Experimental: as §1, §2

[8] = tested on: HeLa; assay: SRB cell proliferation assay, HeLa; assay type: cell-based; settings: Homo sapiens, 18-Cell Line Panel, cervix
Experimental: as §1, §2

[9] = tested on: SK-MEL-28; assay: SRB cell proliferation assay, SK-MEL-28; assay type: cell-based; settings: Homo sapiens, 18-Cell Line Panel, melanoma
Experimental: as §1, §2

[10] = tested on: COLO 205; assay: SRB cell proliferation assay, COLO 205; assay type: cell-based; settings: Homo sapiens, 18-Cell Line Panel, colon
Experimental: as §1, §2

[11] = HT-29, 18-Cell Line Panel, colon, read-out: IC50 HT-29
[12] = HT-29, 72 h, 72 hours, SRB assay, read-out: CELLULAR IC50 HT-29

Chain of Plk1 (P53350 whole entry, species assumed): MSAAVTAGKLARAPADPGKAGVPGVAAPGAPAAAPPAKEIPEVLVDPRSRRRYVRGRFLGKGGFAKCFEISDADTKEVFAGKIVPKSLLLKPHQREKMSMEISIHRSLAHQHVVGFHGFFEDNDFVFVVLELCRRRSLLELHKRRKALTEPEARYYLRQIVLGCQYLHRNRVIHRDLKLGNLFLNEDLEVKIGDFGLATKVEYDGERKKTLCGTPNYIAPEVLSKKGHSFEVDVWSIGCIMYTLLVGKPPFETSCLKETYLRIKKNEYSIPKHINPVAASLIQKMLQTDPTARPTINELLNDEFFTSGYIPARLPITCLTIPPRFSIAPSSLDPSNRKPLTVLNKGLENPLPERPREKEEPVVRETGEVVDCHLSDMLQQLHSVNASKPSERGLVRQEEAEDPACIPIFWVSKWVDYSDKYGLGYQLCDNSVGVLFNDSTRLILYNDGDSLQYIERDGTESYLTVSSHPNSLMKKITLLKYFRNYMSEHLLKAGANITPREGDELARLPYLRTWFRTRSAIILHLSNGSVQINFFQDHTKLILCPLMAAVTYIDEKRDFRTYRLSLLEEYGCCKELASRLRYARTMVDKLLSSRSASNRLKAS

| IC50 [1] [µM] | IC50 [3, 11] [µM] | IC50 [3, 12] [µM] | IC50 [4] [µM] | IC50 [5] [µM] | IC50 [6] [µM] | IC50 [7] [µM] | IC50 [8] [µM] | IC50 [9] [µM] | IC50 [10] [µM] | Structure (SMILES) | all other kinases were inhibited [2] |
| --- | --- | --- | --- | --- | --- | --- | --- | --- | --- | --- | --- |
| ~0.02 | < 1 | < 1 | < 1 | < 1 | < 1 | < 1 | < 1 | > 1 | < 1 | CCC1C(=O)N(C)c2cnc(Nc3ccc(C(=O)NC4CCN(C)CC4)cc3OC)nc2N1N(C)C (racemic) [Compound 1, 4-(8-Dimethylamino-7-ethyl-5-methyl-6-oxo-5,6,7,8-tetrahydro-pteridin-2-ylamino)-3-methoxy-N-(1-methyl-piperidin-4-yl)-benzamide] | less than 10% |
| ~0.02 | < 1 | < 1 | < 1 | > 1 | < 1 | < 1 | < 1 | > 1 | < 1 | CCC1C(=O)N(C)c2cnc(Nc3ccc(C(=O)N[C@H]4CC[C@H](N5CCN(CC6CC6)CC5)CC4)cc3OC)nc2N1N(C)C (relative stereo) [Compound 13, N-[trans-4-(4-Cyclopropylmethyl-piperazin-1-yl)-cyclohexyl]-4-(8-dimethylamino-7-ethyl-5-methyl-6-oxo-5,6,7,8-tetrahydro-pteridin-2-ylamino)-3-methoxy-benzamide] | less than 10% |
